In ChEMBL document CHEMBL3797180, “Squaramides with cytotoxic activity against human gastric carcinoma cells HGC-27: synthesis and mechanism of action” (Medchemcomm, 2016):
Active and inactive are the calls of the source. No cut-off for these calls is given here.

How the values were obtained:
HGC-27 [1] = assay: Induction of apoptosis in HGC27 cells at 8 uM after 24 hrs in presence of pan-caspase inhibitor Z-VAD-FMK by Annexin-V-FITC/propidium iodide staining-based flow cytometry; assay type: functional, cell-based; settings: Homo sapiens
Vero [2] = assay: Cytotoxicity against African green monkey Vero cells assessed as cellular ATP level after 24 hrs by SRB assay; assay type: cell-based; settings: Chlorocebus sabaeus
HGC-27 [3] = assay: Induction of apoptosis in HGC27 cells assessed as apoptotic cells at 1 uM after 24 hrs by Annexin-V-FITC/propidium iodide staining-based flow cytometry (reference value: 6.7%); assay type: functional, Homo sapiens
HGC-27 [4] = assay: Induction of apoptosis in HGC27 cells at 8 uM after 24 hrs in presence of caspase 8 inhibitor Z-IETD-FMK by Annexin-V-FITC/propidium iodide staining-based flow cytometry; assay type: functional, cell-based; settings: Homo sapiens
HGC-27 [5] = assay: Induction of apoptosis in HGC27 cells at 8 uM after 24 hrs in presence of caspase 9 inhibitor Z-LEHD-FMK by Annexin-V-FITC/propidium iodide staining-based flow cytometry; assay type: functional, cell-based; settings: Homo sapiens
[6] = Cytotoxicity against HGC27 cells assessed as cellular ATP level after 24 hrs by SRB assay; assay type: functional, cell-based; settings: Homo sapiens, HGC-27, 24 h
HeLa [7] = assay: Cytotoxicity against human HeLa cells assessed as inhibition of cell viability at 100 uM after 24 hrs by MTT assay; assay type: functional, cell-based
HeLa [8] = assay: Cytotoxicity against human HeLa cells assessed as inhibition of cell viability at 20 uM after 24 hrs by MTT assay; assay type: functional, cell-based
HGC-27 [9] = assay: Induction of apoptosis in HGC27 cells assessed as increase in necrotic cells at 2 uM co-treated with autophagy inhibitor chloroquine after 24 hrs by Annexin-V-FITC/propidium iodide staining-based flow cytometry; assay type: functional, cell-based; settings: Homo sapiens
HGC-27 [10] = assay: Induction of apoptosis in HGC27 cells at 2 uM co-treated with autophagy inhibitor chloroquine after 24 hrs by Annexin-V-FITC/propidium iodide staining-based flow cytometry; assay type: functional, cell-based; settings: Homo sapiens
HGC-27 [11] = assay: Induction of apoptosis in HGC27 cells assessed as apoptotic cells at 2.5 uM after 24 hrs by Annexin-V-FITC/propidium iodide staining-based flow cytometry (reference value: 6.7%); assay type: functional, Homo sapiens
HGC-27 [12] = assay: Induction of autophagy in HGC27 cells assessed as increase in LC3-2 level after 24 hrs by Western blotting method in presence of lysosomal dysfunction inducer PI; assay type: functional, cell-based; settings: Homo sapiens
HeLa [13] = assay: Cytotoxicity against human HeLa cells after 24 hrs by MTT assay; assay type: functional, cell-based
HGC-27 [14] = assay: Induction of apoptosis in HGC27 cells assessed as apoptotic cells at 8 uM after 24 hrs by Annexin-V-FITC/propidium iodide staining-based flow cytometry (reference value: 6.7%); assay type: functional, Homo sapiens
[15] = Cytotoxicity against human U87 cells by MTT assay; assay type: functional, cell-based, U-87MG ATCC; settings: U-87 MG
HGC-27 [16] = assay: (§1) Cytotoxicity against HGC27 cells after 24 hrs by MTT assay; assay type: functional, cell-based; settings: Homo sapiens
[17] = as §1; assay type: functional, cell-based; settings: Homo sapiens, HGC-27, 24 h
[18] = Cell cycle arrest in HGC27 cells assessed as decrease in G2/M phase population after 24 hrs at 5 uM by propidium idoide staining based flow cytometric analysis; assay type: functional; settings: Homo sapiens, HGC-27
HGC-27 [19] = assay: Induction of apoptosis in HGC27 cells assessed as increase in necrotic cells at 2 uM co-treated with autophagy inhibitor 3-MA after 24 hrs by Annexin-V-FITC/propidium iodide staining-based flow cytometry; assay type: functional, cell-based; settings: Homo sapiens
HGC-27 [20] = assay: Induction of apoptosis in HGC27 cells assessed as necrotic cells at 8 uM after 24 hrs in presence of cathepsin-B inhibitor-3 by Annexin-V-FITC/propidium iodide staining-based flow cytometry; assay type: functional, cell-based; settings: Homo sapiens
HGC-27 [21] = assay: Induction of apoptosis in HGC27 cells at 8 uM after 24 hrs in presence of cathepsin-B inhibitor-3 by Annexin-V-FITC/propidium iodide staining-based flow cytometry; assay type: functional, cell-based; settings: Homo sapiens
[22] = Cytotoxicity against HGC27 cells after 48 hrs by MTT assay; assay type: functional, cell-based; settings: Homo sapiens, HGC-27, 48 h
MDCK [23] = assay: Cytotoxicity against MDCK cells assessed as cellular ATP level after 24 hrs by SRB assay; assay type: cell-based; settings: Canis lupus familiaris
HGC-27 [24] = assay: Induction of apoptosis in HGC27 cells at 2 uM co-treated with autophagy inhibitor 3-MA after 24 hrs by Annexin-V-FITC/propidium iodide staining-based flow cytometry; assay type: functional, cell-based; settings: Homo sapiens
[25] = Cell cycle arrest in HGC27 cells assessed as accumulation at G0/G1 phase after 24 hrs at 5 uM by propidium idoide staining based flow cytometric analysis; assay type: functional; settings: Homo sapiens, HGC-27
[26] = Cell cycle arrest in HGC27 cells assessed as accumulation at G2/GM phase after 24 hrs at 500 nM by propidium idoide staining based flow cytometric analysis; assay type: functional; settings: Homo sapiens, HGC-27
HGC-27 [27] = assay: Induction of autophagy in HGC27 cells assessed as increase in LC3-2 level after 24 hrs by Western blotting method; assay type: functional, cell-based; settings: Homo sapiens
HGC-27 [28] = assay: Induction of apoptosis in HGC27 cells assessed as reduction in mitochondrial membrane potential at 2 and 8 uM after 24 hrs by JC-1 staining based flow cytometric analysis; assay type: functional, cell-based; settings: Homo sapiens
HGC-27 [29] = assay: Induction of reactive oxygen species formation in HGC27 cells at 1.4 to 24 uM after 5 hrs using DCFH-DA probe by spectrofluorimetry; assay type: functional, cell-based; settings: Homo sapiens
HEK293 = assay: Cytotoxicity against HEK293 cells by MTT assay; assay type: cell-based; settings: Homo sapiens
[30] = Cytotoxicity against human T98 cells by MTT assay; assay type: functional, cell-based
[31] = Cell cycle arrest in HGC27 cells assessed as decrease in S-phase population after 24 hrs at 5 uM by propidium idoide staining based flow cytometric analysis; assay type: functional; settings: Homo sapiens, HGC-27
HGC-27 [32] = assay: Induction of apoptosis in HGC27 cells assessed as necrotic cells at 8 uM after 24 hrs in presence of RIP1 inhibitor necrostatin-1 by Annexin-V-FITC/propidium iodide staining-based flow cytometry; assay type: functional, cell-based; settings: Homo sapiens
MDCK [33] = assay: Cytotoxicity against MDCK cells by MTT assay; assay type: cell-based; settings: Canis lupus familiaris
Vero [34] = assay: Cytotoxicity against African green monkey Vero cells by MTT assay; assay type: cell-based; settings: Chlorocebus sabaeus
HGC-27 [35] = assay: Induction of apoptosis in HGC27 cells assessed as apoptotic cells after 24 hrs by Annexin-V-FITC/propidium iodide staining-based flow cytometry; assay type: functional, cell-based; settings: Homo sapiens

O=c1c(Nc2cc(C(F)(F)F)cc(C(F)(F)F)c2)c(N[C@@H](c2ccccc2)C(O)(c2ccccc2)c2ccccc2)c1=O
Activity (HGC-27 [1]): Active
IC50 (Vero [2]): 73.9 µM
Activity (HGC-27 [3]): 2.4%
Activity (HGC-27 [4]): Active
Activity (HGC-27 [5]): inactive
IC50 [6]: 9.74 µM
inhibition (HeLa [7]): Active
inhibition (HeLa [8]): Active
Activity (HGC-27 [9]): Active
Activity (HGC-27 [10]): Active
Activity (HGC-27 [11]): 24.7%
Activity (HGC-27 [12]): Active
IC50 (HeLa [13]): 34.6 µM
Activity (HGC-27 [14]): 60.1%
IC50 [15]: 60.2 µM
Activity (HGC-27 [16]): Dose-dependent effect
IC50 [17]: 1810 nM
Activity [18]: Active
Activity (HGC-27 [19]): Active
Activity (HGC-27 [20]): Active
Activity (HGC-27 [21]): Active
IC50 [22]: 660 nM
IC50 (MDCK [23]): 149 µM
Activity (HGC-27 [24]): Active
Activity [25]: Active
Activity [26]: Active
Activity (HGC-27 [27]): Active
Activity (HGC-27 [28]): Active
Activity (HGC-27 [29]): inactive
IC50 (HEK293): 9.03 µM
IC50 [30]: 7.15 µM
Activity [31]: Active
Activity (HGC-27 [32]): Active
IC50 (MDCK [33]): 70.2 µM
IC50 (Vero [34]): 33.4 µM
Activity (HGC-27 [35]): Dose-dependent effect
